Test results taken from patent US20180296588A1, “COMBINATION THERAPY FOR TREATING VIRAL INFECTIONS” (ContraVir Pharmaceuticals, Inc., priority 2017, published 2018).
“Also recorded” adds a separate entry of the source. Where two headings read alike, the source gives them in different places.

Experiments:
[1] = test system: HBV; assay: Anti-HBV effects in the HBV transgenic mouse model; format: in vivo, HBV transgenic mice; conditions: for liver HBsAg / serum HBV DNA / serum HBeAg: alone or in combination; for liver HBsAg / serum HBV DNA / serum HBeAg / serum HBsAg: oral, 16 days; for liver HBsAg: FIG. 8; for serum HBV DNA: FIG. 9; for serum HBeAg: FIG. 10; for serum HBsAg: FIG. 7; for liver HBV DNA (copies per mg liver): once-daily oral gavage 16 days, Compound I 10 or 50, Compound II 5 or 10 mg/kg/day, combination 10+5, FIG. 6
Method: (§1) Compound I and Compound II were administered by once-daily oral gavage for 16 days to HBV transgenic mice which replicated HBV from a 1.3× overlength HBV genome integrated into the mouse genome. Expression occurred mostly in hepatocytes.
Treatment Groups (n=8/Group):
After 16 days of dosing, livers and serum were harvested and the following parameters were measured: a) HBV DNA by quantitative PCR (liver and serum) b) HBsAg by ELISA (liver and serum) c) HBeAg by ELISA (serum)

[2] = test system: HBV DNA replication in DE19 cells; assay: Inhibition of intracellular HBV DNA replication in HepDE19 cells (PCR); format: cell-based; conditions: Hepatitis B virus
Method: (§2) The antiviral activity of Compound I and Compound II towards HBV was tested in various cell lines (HepAD38, HepDE19 and HepDES19). The HepAD38 cell line is derived from the HepG2 cell line and engineered to stably maintain HBV (see Ladner et al., Antimicrobial Agents and Chemotherapy, 1997, 41, 1715-1720, which is incorporated herein by reference in its entirety). DE19 and DES19 cell lines are human hepatoma derived cell lines (see Guo et al. J. Virol 2007, 81, 12472-84, which is incorporated herein by reference in its entirety). Active HBV replication in the cells was suppressed by inclusion of tetracycline in the cell culture medium, which binds to a tetracycline-sensitive promoter, and induced by removal of tetracycline. HBV replication was quantified by measuring the amount of HBV DNA in the cells.
(§3) Compound I and Compound II were applied to induced cells (i.e., cells without tetracycline), either alone or in combination at various concentrations. Next, intracellular DNA was isolated and HBV DNA was measured by polymerase chain reaction (PCR). The percent inhibition of HBV DNA was examined over the concentration ranges of 0-320 nM for Compound I and 0-640 nM for Compound II. Concentration versus effect curves were constructed for both drugs (FIGS. 1A and 1B, 2A and 2B, and 3A and 3B). […] See FIGS. 1B, 2B, and 3B (curves where [Compound II]=0).
(§4) The level of reduction in intracellular HBV DNA by the various combinations of Compound I and II as plotted in FIGS. 1 A and 1B, 2A and 2B, and 3A and 3B, was analyzed using the Shipman-Prichard synergy scoring program (MacSynergy™ II program, Prichard et al. Antiviral Research 1990), wherein the experimentally observed effect of each combination is compared to the theoretical, additive inhibition. The comparison is used to determine combination scores (effect volumes) that represent either synergistic (positive scores) or antagonistic (negative scores) effects. All the positive and negative scores are summed to calculate overall synergy and antagonism scores that reflect the entire concentration spectrum of the two drugs. The magnitude of the scores reflect the degree of synergism/antagonism and the likelihood of the synergistic/antagonistic activities being important in vivo, according to the following four categories: (1) Synergy/Antagonism Volume=0-25 (log volume <2): insignificant synergy/antagonism (i.e., only additive effects); (2) Synergy/Antagonism Volume=25-50 (log volume 2-5): minor but significant amount of synergy/antagonism; (3) Synergy/Antagonism Volume=50-100 (log volume 5-9): moderate synergy/antagonism that may be important in vivo; (4) Synergy/Antagonism Volume >100 (log volume >9): stronger synergy/antagonism that is probably important in vivo. IC50 values for Compound I in combination with different concentrations of Compound II, and Compound II in combination with different concentrations of Compound I, are presented in Tables 6 and 7, respectively.

[3] = test system: HBV DNA replication in AD38, DES19 and DE19 cells; assay: In vitro combination study, statements covering AD38, DES19 and DE19 cells together; format: cell-based, hepatitis B virus; conditions: Compound I 5-320 nM and/or Compound II 10-640 nM; FIGS. 1-3
Method: The antiviral activity of Compound I and Compound II towards HBV was tested in various cell lines (HepAD38, HepDE19 and HepDES19). […] Active HBV replication in the cells was suppressed by inclusion of tetracycline in the cell culture medium, which binds to a tetracycline-sensitive promoter, and induced by removal of tetracycline. HBV replication was quantified by measuring the amount of HBV DNA in the cells.
The comparison is used to determine combination scores (effect volumes) that represent either synergistic (positive scores) or antagonistic (negative scores) effects. All the positive and negative scores are summed to calculate overall synergy and antagonism scores that reflect the entire concentration spectrum of the two drugs. […]

[4] = test system: HBV DNA replication in DES19 cells; assay: Inhibition of intracellular HBV DNA replication in HepDES19 cells (PCR); format: cell-based; conditions: Hepatitis B virus
Method: as §2, §3, §4

[5] = Compound I concentration in serum by liquid chromatography-mass spectrometry; format: in vivo, HBV transgenic mice; conditions: 3-hr post-dose on Day 16 of dosing; FIG. 11
Method: as §1
Compound I Concentrations were Measured by Liquid Chromatography-Mass Spectrometry (Serum)

[6] = test system: HBV DNA replication in HepAD38 cells; assay: Inhibition of intracellular HBV DNA replication in HepAD38 cells (PCR); format: cell-based; conditions: Hepatitis B virus
Method: as §2, §3, §4

CC[C@@H]1NC(=O)C([C@H](O)[C@H](C)CCCCCCNC(C)=O)N(C)C(=O)[C@@H](C(C)C)N(C)C(=O)[C@H](CC(C)C)N(C)C(=O)[C@H](CC(C)C)N(C)C(=O)[C@H](C)NC(=O)[C@H](C)NC(=O)[C@@H](CC(C)C)N(C)C(=O)[C@H](C(C)C)NC(=O)[C@H](CC(C)C)N(C)C(=O)[C@H](C)N(C)C1=O (stereo partly shown) [Compound I]
liver HBsAg [1]: did not affect | serum HBV DNA [1]: did not affect | serum HBeAg [1]: did not affect | serum HBsAg ([1]; high-dose Compound I (50 mg/kg/day)): decreased serum HBsAg; also recorded: able to lower serum HBsAg levels | liver HBV DNA (copies per mg liver) [1]: decreased liver HBV DNA; also recorded: highly efficacious | IC50 ([2]; HepDE19, read-out: IC50 for Compound I, DE19 cells, Compound II 0 nM): 32.9 nM | IC50 ([2]; HepDE19, read-out: IC50 for Compound I, DE19 cells, Compound II 10 nM): 29.5 nM | IC50 ([2]; HepDE19, read-out: IC50 for Compound I, DE19 cells, Compound II 20 nM): 26 nM | IC50 ([2]; HepDE19, read-out: IC50 for Compound I, DE19 cells, Compound II 40 nM): 27.3 nM | IC50 ([2]; HepDE19, read-out: IC50 for Compound I, DE19 cells, Compound II 80 nM): 27.8 nM | IC50 ([2]; HepDE19, read-out: IC50 for Compound I, DE19 cells, Compound II 160 nM): 33.6 nM | IC50 ([2]; HepDE19, read-out: IC50 for Compound I, DE19 cells, Compound II 320 nM): 37.5 nM | IC50 ([2]; HepDE19, read-out: IC50 for Compound I, DE19 cells, Compound II 640 nM): 23.3 nM | intracellular HBV DNA compared to induced cells in the absence of the drug [3]: reduced intracellular HBV DNA in a concentration-dependent manner | IC50 ([4]; HepDES19, read-out: IC50 for Compound I, DES19 cells, Compound II 0 nM): 33.4 nM | IC50 ([4]; HepDES19, read-out: IC50 for Compound I, DES19 cells, Compound II 10 nM): 29.1 nM | IC50 ([4]; HepDES19, read-out: IC50 for Compound I, DES19 cells, Compound II 20 nM): 27.2 nM | IC50 ([4]; HepDES19, read-out: IC50 for Compound I, DES19 cells, Compound II 40 nM): 26.4 nM | IC50 ([4]; HepDES19, read-out: IC50 for Compound I, DES19 cells, Compound II 80 nM): 27.8 nM | IC50 ([4]; HepDES19, read-out: IC50 for Compound I, DES19 cells, Compound II 160 nM): 34.7 nM | IC50 ([4]; HepDES19, read-out: IC50 for Compound I, DES19 cells, Compound II 320 nM): 32.4 nM | IC50 ([4]; HepDES19, read-out: IC50 for Compound I, DES19 cells, Compound II 640 nM): 22.9 nM | serum Compound I concentration [5]: correlated with the effects of Compound I on HBV DNA and HBsAg | IC50 ([6]; HePAD38, read-out: IC50 for Compound I, AD38 cells, Compound II 0 nM): 32.1 nM | IC50 ([6]; HePAD38, read-out: IC50 for Compound I, AD38 cells, Compound II 10 nM): 31 nM | IC50 ([6]; HePAD38, read-out: IC50 for Compound I, AD38 cells, Compound II 20 nM): 26.5 nM | IC50 ([6]; HePAD38, read-out: IC50 for Compound I, AD38 cells, Compound II 40 nM): 29.9 nM | IC50 ([6]; HePAD38, read-out: IC50 for Compound I, AD38 cells, Compound II 80 nM): 29.5 nM | IC50 ([6]; HePAD38, read-out: IC50 for Compound I, AD38 cells, Compound II 160 nM): 34.5 nM | IC50 ([6]; HePAD38, read-out: IC50 for Compound I, AD38 cells, Compound II 320 nM): 38.2 nM | IC50 ([6]; HePAD38, read-out: IC50 for Compound I, AD38 cells, Compound II 640 nM): 21 nM

CCCCCCCCCCCCCCCCOCCCOP(=O)(O)CO[C@H](C)Cn1cnc2c(N)ncnc21 [Compound II, 3-(hexadecyloxy)propyl hydrogen ((R)-1-(6-amino-9H-purin 9-yl)propan-2-yloxy)methylphosphonate]
serum HBsAg ([1]; Compound II alone (5 or 10 mg/kg/day) or with low-dose Compound I (10 mg/kg/day)): did not affect serum HBsAg | liver HBsAg [1]: did not affect | serum HBV DNA [1]: did not affect | serum HBeAg [1]: did not affect | liver HBV DNA (copies per mg liver) [1]: decreased liver HBV DNA; also recorded: highly efficacious | IC50 ([2]; HepDE19, read-out: IC50 for Compound II, DE19 cells, Compound I 0 nM): 253 nM | IC50 ([2]; HepDE19, read-out: IC50 for Compound II, DE19 cells, Compound I 5 nM): 270 nM | IC50 ([2]; HepDE19, read-out: IC50 for Compound II, DE19 cells, Compound I 10 nM): 255 nM | IC50 ([2]; HepDE19, read-out: IC50 for Compound II, DE19 cells, Compound I 20 nM): 213 nM | IC50 ([2]; HepDE19, read-out: IC50 for Compound II, DE19 cells, Compound I 40 nM): 237 nM | IC50 ([2]; HepDE19, read-out: IC50 for Compound II, DE19 cells, Compound I 80 nM): 226 nM | IC50 ([2]; HepDE19, read-out: IC50 for Compound II, DE19 cells, Compound I 160 nM): 83.9 nM | IC50 ([2]; HepDE19, read-out: IC50 for Compound II, DE19 cells, Compound I 320 nM): 110 nM | intracellular HBV DNA compared to induced cells in the absence of the drug [3]: reduced intracellular HBV DNA in a concentration-dependent manner | IC50 ([4]; HepDES19, read-out: IC50 for Compound II, DES19 cells, Compound I 0 nM): 252 nM | IC50 ([4]; HepDES19, read-out: IC50 for Compound II, DES19 cells, Compound I 5 nM): 237 nM | IC50 ([4]; HepDES19, read-out: IC50 for Compound II, DES19 cells, Compound I 10 nM): 228 nM | IC50 ([4]; HepDES19, read-out: IC50 for Compound II, DES19 cells, Compound I 20 nM): 180 nM | IC50 ([4]; HepDES19, read-out: IC50 for Compound II, DES19 cells, Compound I 40 nM): 190 nM | IC50 ([4]; HepDES19, read-out: IC50 for Compound II, DES19 cells, Compound I 80 nM): 188 nM | IC50 ([4]; HepDES19, read-out: IC50 for Compound II, DES19 cells, Compound I 160 nM): 86.6 nM | IC50 ([4]; HepDES19, read-out: IC50 for Compound II, DES19 cells, Compound I 320 nM): 63.2 nM | IC50 ([6]; HePAD38, read-out: IC50 for Compound II, AD38 cells, Compound I 0 nM): 248 nM | IC50 ([6]; HePAD38, read-out: IC50 for Compound II, AD38 cells, Compound I 5 nM): 259 nM | IC50 ([6]; HePAD38, read-out: IC50 for Compound II, AD38 cells, Compound I 10 nM): 255 nM | IC50 ([6]; HePAD38, read-out: IC50 for Compound II, AD38 cells, Compound I 20 nM): 232 nM | IC50 ([6]; HePAD38, read-out: IC50 for Compound II, AD38 cells, Compound I 40 nM): 232 nM | IC50 ([6]; HePAD38, read-out: IC50 for Compound II, AD38 cells, Compound I 80 nM): 229 nM | IC50 ([6]; HePAD38, read-out: IC50 for Compound II, AD38 cells, Compound I 160 nM): 104 nM | IC50 ([6]; HePAD38, read-out: IC50 for Compound II, AD38 cells, Compound I 320 nM): 99.7 nM
